Read-outs that look alike come from different tables or passages of the source.
Experiments:
[1] = test system: rat hind foot kaolin-induced oedema; assay: Kaolin-induced arthritis test, first experiment (decrease in inflammation, foot volume); type: in vivo; conditions: 1 h before kaolin, Table IX, read-out: percentage decrease in the inflammation; for change in vivo at 25 mg/kg: 25 mg/kg oral; for change in vivo at 50 mg/kg: 50 mg/kg oral; for change in vivo at 100 mg/kg: 100 mg/kg oral
Method: The […] of 0.05 ml of a sterile 10% strength suspension of kaolin into the metatarsal flexor sheath of the hind foot of a rat initially induces an oedematous reaction. An inflammatory arthritis then forms.
The early oedematous reaction appears from the first hour, and reaches its maximum between the fourth hour and the sixth hour. This is the manifestation of interest. The assessment of the volume of the foot enables the action of substances on the oedematous reaction to be studied. The measurements are carried out using a Giono and Chevilard plethysmometer.
The test products are administered orally (stomach tube) one hour before the injection of the kaolin.
The results are expressed as a percentage decrease in the inflammation in the treated animals compared with a control series of animals.
The batches are of 10 animals per dose and 10 control animals.
The figures shown represent the mean of 10 animals.

[2] = test system: rat hind foot carragheenin-induced oedema; assay: Carragheenin-induced oedema test; type: in vivo; conditions: 3 h, first experiment, Table X, read-out: percentage inhibition of the inflammation; for change in vivo at 25 mg/kg: 25 mg/kg oral; for change in vivo at 50 mg/kg: 50 mg/kg oral; for change in vivo at 100 mg/kg: 100 mg/kg oral
Method: In this test, 10 rats are used per test compound of the invention. Control batches of 10 rats also receive either the comparative compound (ketoprofen) or exclusively an NaCl solution.
The compounds of the invention are administered orally (stomach tube) one hour before the injection of carragheenin.
The carragheenin is suspended at a concentration of 1% in a 0.9% isotonic sodium chloride solution. The volume injected into the rat's foot is 0.20 ml.
The volume of the foot is measured before the injection and 3 hours later. The antagonistic effect of the products towards carragheenin is reflected in the inhibition of the volume of the oedema compared with control rats. The latter receive only isotonic NaCl solution under identical conditions.

[3] = test system: foreign-body (sponge) granuloma in rats; assay: Experimental granuloma induced by foreign body, histological study; type: in vivo, Wistar rats; conditions: 8 days, Table XI
Method: This test consists in studying the subacute cellular phase which is developed in the 8 days which follow the implantation of a foreign body, a sponge of non-resorbable plastic, in the dorsal subcutaneous connective tissue in rats.
The granulomas formed are removed 8 days after the implantation; a histological study is carried out after fixing the tissue and staining sections with hematein/ eosin. The observation is more especially concerned with the cell population of the primary phase of the formation of the granulation tissue: the reticulohistocytic cells, lymphocytes and more especially the macrophages.
The animals used are Wistar rats weighing 120-140 g and of the same origin, maintained under the same conditions of housing throughout the treatment (8 days).
The compounds of the invention are administered orally, in a gum suspension, in the morning in a fasted state, using an oesophageal tube.
After 8 days of treatment, the rats are sacrificed by decapitation and the granulomas removed and prepared for the purpose of histological examination.
The experiment conditions are as follows:
The animals are distributed in batches of 10;
Each test product is administered at 2 doses, of 50 and 100 mg, respectively, to 2 batches of 10 animals;
Ketoprofen is used by way of reference product at the same 2 doses and under the same conditions; and
A batch of 10 control animals receives no treatment.
In this experiment, on the one hand a histological study of the granulomas is performed by sampling on day 8 (results recorded in Table XIa), and on the other hand a study of the weight of the granulomas was performed 10 days after the implantation (results recorded in Table XIb).

[4] = test system: pain threshold of brewer's yeast inflamed rat hind foot; assay: Randall and Sellitto's test (analgesic activity); type: in vivo
Method: Inflammation increases the sensitivity to pain, in particular to pressure, and analgesics raise the threshold of the sensitivity.
The inflammation is obtained by injecting 0.1 ml of a 20% strength aqueous suspension of brewer's yeast under the plantar aponeurosis of one of the hind feet. […] The pain threshold is assessed in terms of the force necessary and sufficient to initiate a characteristic reaction of withdrawing the foot.
The sensitivity to pain of the inflamed foot reaches a plateau 4 hours after the injection of the brewer's yeast, and then remains stable until the 6th hour. The pain threshold of the inflamed foot in control rats weighing 140 g is reached for pressures of 50 to 60 g, whereas it is around 160 g for the intact foot.
The action of the substance administered orally to series of 10 rats is expressed in terms of the percentage increase in the mean pain threshold, compared with that measured in the rats of a control series of 10 animals which have not received a compound of the invention.
The test products are administered orally (stomach tube) one hour before the injection of brewer's yeast.
The comparative compound used is ketoprofen.

[5] = test system: biosynthesis of leukotrienes B4 (LTB4), human polymorphonuclear leukocytes; assay: Biosynthesis of LTB4, isomers and oxidized metabolites in human polymorphonuclear leukocytes; type: cell-based; conditions: Leukocyte, first experiment
Method: Polymorphonuclear leukocytes are isolated from human blood and used during the 6 hours following the withdrawal. The viability of the cells is checked by trypan blue exclusion.
5×10^6 cells are incubated for 10 minutes at 37° C. in the presence of the test product dissolved in DMSO, and are stimulated with ionophore A 23187 (Galbiochem, 10 μM) in PBS buffer at pH 7.4, Ca^2+ and Mg^2+ =1 μM.
100 ng of prostaglandin B2 (PGB2), dissolved in methanol, are added at the end of the reaction to act as an internal standard.
On centrifugation, the culture supernatant is withdrawn. The latter is retrieved under argon and stored at -80° C. until analysed by HPLC.
This analysis is carried out by injecting 250 μl onto a 5 μm ODS ultrasphere column (Beckmann), with a gradient of acetonitrile (20-80%) in water, at pH 7.4.
The amounts of the different products which absorb at 269 nm, i.e. leukotrienes B4 (LTB4), isomers of LTB4 and oxidized metabolites of LTB4, are estimated by comparison with the internal standard.
The test product is used at a concentration of 40 μM.
They are expressed either as a percentage inhibition, or as a percentage increase in the production of LTB4, isomers of LTB4 and oxidized metabolites of LTB4 (designated by +).
The experimental model is the same as that described in Section 2.1. Other products are tested by comparison with the compound of the invention no. 1574, used as a control.

[6] = 25 mg/kg oral, first experiment, Table XII, read-out: percentage increase in the mean pain threshold
[7] = 50 mg/kg oral, first experiment, Table XII, read-out: percentage increase in the mean pain threshold
[8] = 100 mg/kg oral, first experiment, Table XII, read-out: percentage increase in the mean pain threshold
[9] = both doses (50 and 100 mg/kg) oral
[10] = read-out: Isomers of LTB4: percentage inhibition (+ : percentage increase in the production)
[11] = read-out: LTB4: percentage inhibition (+ : percentage increase in the production)
[12] = read-out: Oxidized metabolites of LTB4: percentage inhibition (+ : percentage increase in the production)

Compound	change in vivo at 25 mg/kg [1]	change in vivo at 50 mg/kg [1]	change in vivo at 100 mg/kg [1]	change in vivo at 25 mg/kg [2]	change in vivo at 50 mg/kg [2]	change in vivo at 100 mg/kg [2]	change in vivo at 25 mg/kg [4, 6]	change in vivo at 50 mg/kg [4, 7]	change in vivo at 100 mg/kg [4, 8]	histological study of the granuloma [3, 9]	inhibition at 40 µM [5, 10]	inhibition at 40 µM [5, 11]	inhibition at 40 µM [5, 12]	other results
O=C(O)CCCCCNS(=O)(=O)c1ccc(Cl)cc1C(=O)c1ccccc1Cl [Compound 1570]	-10%	-25%	-52%	-20%	-29%	-40%	15%	25%	53%					histological study of the granuloma ([3]; 50 mg/kg oral): anti-inflammatory activity is exhibited; histological study of the granuloma ([3]; 100 mg/kg oral): distinct
O=C(c1ccc(Cl)cc1)c1ccccc1S(=O)(=O)NCCCN1CCOCC1 [Compound 1410]	-18%	-32%	-57%	-15%	-25%	-48%	19%	37%	58%	inflammatory reaction is attenuated				
CC(C(=O)O)c1cccc(C(=O)c2ccccc2)c1 (stereo not shown) [Ketoprofen, ketoprofen, reference compound]	-30%	-51%	-73%							very substantial decrease				change in vivo at 25 mg/kg ([2]; po): -25%; change in vivo at 50 mg/kg ([2]; po): -45%; change in vivo at 100 mg/kg ([2]; po): -65%; change in vivo at 25 mg/kg ([4]; po, read-out: percentage increase in the mean pain threshold, 25 mg/kg oral, first experiment, Table XII): 22%; change in vivo at 25 mg/kg ([4]; po, read-out: percentage increase in the mean pain threshold, 25 mg/kg oral, second experiment, Table XIIa): 50%; change in vivo at 50 mg/kg ([4]; po, read-out: percentage increase in the mean pain threshold, 50 mg/kg oral, first experiment, Table XII): 55%; change in vivo at 50 mg/kg ([4]; po, read-out: percentage increase in the mean pain threshold, 50 mg/kg oral, second experiment, Table XIIa): 55%; change in vivo at 100 mg/kg ([4]; po, read-out: percentage increase in the mean pain threshold, 100 mg/kg oral, first experiment, Table XII): 78%; change in vivo at 100 mg/kg ([4]; po, read-out: percentage increase in the mean pain threshold, 100 mg/kg oral, second experiment, Table XIIa): 58%
O=C(O)CCCCCCCCCCNS(=O)(=O)c1cccc(C(=O)c2ccccc2)c1 [Compound 1684]	-28%	-42%	-45%	-30%	-45%	-55%	35%	45%	50%		35%	20%	60%	
O=C(O)CCCCCCCCCCNS(=O)(=O)c1ccccc1C(=O)c1ccccc1 [Compound 1682]	-35%	-35%	-40%	-33%	-42%	-45%	12%	15%	20%		30%	30%	40%	

— patent publication US4980349A, “Sulphonamides derived from diarylmethanes, the processes for preparing them and pharmaceutical compositions containing them” (SANOFI, priority 1986, dated 1990)
